Measured values published in ChEMBL document CHEMBL1201862, “PubChem BioAssay data set” (2004).
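Protocol summary: plate cells (96-well), add compound at 5 concentrations, incubate 48 h, interpolate endpoints linearly. At the GI50, growth is halved.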 Calls of active or inactive are those of the source. Cut-off read from the data, not from the text of the source: active = GI50 up to about 1.1 µM and inactive = higher.

How the values were obtained:
Experiment in all cases: growth of human tumour cells (NCI), 48 h
[1] = system: HT-29
[2] = system: RXF 393
[3] = system: SK-MEL-28
[4] = system: UACC-62
[5] = system: KM-20L2
[6] = system: SF-295
[7] = system: U-251
[8] = system: A549
[9] = system: NCI-H226
[10] = system: A498
[11] = system: Hs-578T
[12] = system: OVCAR-8
[13] = system: MDA-MB-435
[14] = system: SW-620
[15] = system: NCI/ADR-RES
[16] = system: M19-MEL
[17] = system: M14
[18] = system: BT-549
[19] = system: DU-145
[20] = system: COLO 205
[21] = system: DMS-273
[22] = system: NCI-H460
[23] = system: RPMI-8226
[24] = system: HL-60
[25] = system: SNB-78
[26] = system: HCC 2998
[27] = system: SR
[28] = system: HCT-116
[29] = system: SK-OV-3
[30] = system: NCI-H522
[31] = system: TK-10
[32] = system: CCRF-CEM
[33] = system: HOP-62
[34] = system: DMS-114
[35] = system: OVCAR-4
[36] = system: MDA-MB-231
[37] = system: PC-3
[38] = system: SK-MEL-2
[39] = system: SF-539
[40] = system: OVCAR-3
[41] = system: Malme-3M
[42] = system: DLD-1
[43] = system: 786-0
[44] = system: ACHN
[45] = system: MOLT-4
[46] = system: XF498
[47] = system: T47D
[48] = system: UO-31
[49] = system: KM12
[50] = system: HOP-92
[51] = system: NCI-H23
[52] = system: SK-MEL-5
[53] = system: MCF7
[54] = system: SN12C
[55] = system: HCT-15
[56] = system: SF-268
[57] = system: LXFL 529
[58] = system: MDA-N
[59] = system: SNB-19
[60] = system: IGROV-1
[61] = system: LOX IMVI
[62] = system: HOP-18
[63] = system: CAKI-1
[64] = system: OVCAR-5
[65] = system: K562
[66] = system: EKVX
[67] = system: UACC-257

With `CC[C@]12C=CCN3CCC4(c5cc([C@@]6(C(=O)OC)CC7CN(CCc8c6[nH]c6ccccc86)C[C@@H]6CCCC[C@H]76)c(OC)cc5N(C)C4[C@](O)(C(=O)OC)C1OC(C)=O)[C@@H]32` (stereo partly specified) the GI50 [1] was < 10 nM (active), the GI50 [2] was < 10 nM (active) and the GI50 [3] was 2110 nM (inactive). For the same molecule, the GI50 [4] was < 10 nM (active), the GI50 [5] was < 10 nM (active) and the GI50 [6] was < 10 nM (active). For the same molecule, the GI50 [7] was < 10 nM (active), the GI50 [8] was < 10 nM (active) and the GI50 [9] was < 10 nM (active). For the same molecule, the GI50 [10] was < 10 nM (active), the GI50 [11] was < 10 nM (active) and the GI50 [12] was < 10 nM (active). For the same molecule, the GI50 [13] was < 10 nM (active), the GI50 [14] was < 10 nM (active) and the GI50 [15] was 14.8 nM (active). For the same molecule, the GI50 [16] was < 10 nM (active), the GI50 [17] was < 10 nM (active) and the GI50 [18] was 1320 nM (inactive). The GI50 [19] was < 10 nM (active), the GI50 [20] was < 10 nM (active) and the GI50 [21] was < 10 nM (active). The GI50 [22] was < 10 nM (active), the GI50 [23] was < 10 nM (active) and the GI50 [24] was < 10 nM (active). For the same molecule, the GI50 [25] was < 10 nM (active), the GI50 [26] was < 10 nM (active) and the GI50 [27] was < 10 nM (active). The GI50 [28] was < 10 nM (active), the GI50 [29] was < 10 nM (active) and the GI50 [30] was < 10 nM (active). For the same molecule, the GI50 [31] was < 10 nM (active), the GI50 [32] was < 10 nM (active) and the GI50 [33] was < 10 nM (active). The GI50 [34] was < 10 nM (active), the GI50 [35] was 5200 nM (inactive) and the GI50 [36] was < 10 nM (active). For the same molecule, the GI50 [37] was < 10 nM (active), the GI50 [38] was < 10 nM (active) and the GI50 [39] was < 10 nM (active). The GI50 [40] was < 10 nM (active), the GI50 [41] was < 10 nM (active) and the GI50 [42] was < 10 nM (active). The GI50 [43] was < 10 nM (active), the GI50 [44] was < 10 nM (active) and the GI50 [45] was < 10 nM (active). For the same molecule, the GI50 [46] was < 10 nM (active), the GI50 [47] was 18200 nM (inactive) and the GI50 [48] was < 29.9 nM (active). The GI50 [49] was < 10 nM (active), the GI50 [50] was 25.9 nM (active) and the GI50 [51] was < 10 nM (active). The GI50 [52] was < 10 nM (active), the GI50 [53] was < 10 nM (active) and the GI50 [54] was < 10 nM (active). For the same molecule, the GI50 [55] was under 10 nM, the GI50 [56] was < 10 nM (active) and the GI50 [57] was < 10 nM (active). For the same molecule, the GI50 [58] was < 10 nM (active), the GI50 [59] was < 10 nM (active) and the GI50 [60] was < 10 nM (active). The GI50 [61] was < 10 nM (active).

In the case of `COc1ccc(NC(=O)CCc2cc(-c3ccc(O)c(OC)c3)nc(NC#N)n2)cc1`, the GI50 [1] is reported as > 100000 nM (inactive), the GI50 [2] is reported as > 100000 nM (inactive) and the GI50 [3] is reported as > 100000 nM (inactive). The GI50 [4] was > 100000 nM (inactive), the GI50 [5] was > 100000 nM (inactive) and the GI50 [6] was > 100000 nM (inactive). For the same molecule, the GI50 [7] was > 100000 nM (inactive), the GI50 [8] was > 100000 nM (inactive) and the GI50 [9] was > 100000 nM (inactive). The GI50 [62] was > 100000 nM (inactive), the GI50 [12] was > 100000 nM (inactive) and the GI50 [63] was > 100000 nM (inactive). The GI50 [14] was > 100000 nM (inactive), the GI50 [16] was > 100000 nM (inactive) and the GI50 [17] was > 100000 nM (inactive). The GI50 [20] was > 100000 nM (inactive), the GI50 [22] was > 100000 nM (inactive) and the GI50 [24] was > 100000 nM (inactive). The GI50 [25] was > 100000 nM (inactive), the GI50 [64] was > 100000 nM (inactive) and the GI50 [26] was > 100000 nM (inactive). For the same molecule, the GI50 [65] was > 100000 nM (inactive), the GI50 [27] was > 100000 nM (inactive) and the GI50 [28] was > 100000 nM (inactive). For the same molecule, the GI50 [29] was > 100000 nM (inactive), the GI50 [32] was > 100000 nM (inactive) and the GI50 [66] was > 100000 nM (inactive). For the same molecule, the GI50 [33] was > 100000 nM (inactive), the GI50 [34] was > 100000 nM (inactive) and the GI50 [35] was > 100000 nM (inactive). The GI50 [38] was > 100000 nM (inactive), the GI50 [39] was > 100000 nM (inactive) and the GI50 [40] was > 100000 nM (inactive). The GI50 [41] was > 100000 nM (inactive), the GI50 [42] was > 100000 nM (inactive) and the GI50 [43] was > 100000 nM (inactive). The GI50 [44] was > 100000 nM (inactive), the GI50 [45] was > 100000 nM (inactive) and the GI50 [48] was > 100000 nM (inactive). The GI50 [49] was > 100000 nM (inactive), the GI50 [50] was > 100000 nM (inactive) and the GI50 [51] was > 100000 nM (inactive). For the same molecule, the GI50 [54] was > 100000 nM (inactive), the GI50 [55] was over 100000 nM and the GI50 [56] was > 100000 nM (inactive). For the same molecule, the GI50 [57] was > 100000 nM (inactive), the GI50 [67] was > 100000 nM (inactive) and the GI50 [59] was > 100000 nM (inactive). For the same molecule, the GI50 [60] was > 100000 nM (inactive) and the GI50 [61] was > 100000 nM (inactive).
